Entries after “also recorded” stand apart in the source; their conditions may differ.
What was measured:
pneumococcal strain R6 = test: Cell growth curves (OD 620 nm) and viability of R6 with peptide; assay type: cell-based, Streptococcus pneumoniae; conditions: for ability to inhibit R6 growth: peptides at 100 μM added to growing R6 at OD 620 nm of 0.1
Protocol: (§1) Cell growth curves were performed in the presence or absence of the test reagents as specified. In short, samples were prepared as follows: 1 ml of a pneumococcus culture was placed into 10 ml of prewarmed Semisynthetic (C+Y) medium. The optical density (OD) of the bacteria was monitored at 620 nm until an OD of approximately 0.1 was reached. At this point the test reagents were administered to the samples. The cells were cultured for up to 11 hours at 37° Celsius, and the OD at 620 nm was monitored every hour. A decrease in OD 620 is indicative of cell lysis, an increase is indicative of bacterial growth. No change in optical density indicates growth inhibition.
To characterize the antibacterial activity of the peptide, pneumococcal strain R6 which is sensitive to penicillin was exposed to 0.1 mM of the peptide having the amino acid sequence of SEQ ID NO:2 at an optical density of 0.01 (bacterial density of 3×10^6 cfu/ml). Bacterial growth as measured by optical density was followed for 11 hours and viability was assessed by plating on blood agar. […] Four hours after the start of the experiment, the control strain grew from 3×10^6 to 1.2×10^7 cfu/ml. In contrast, four hours after addition of the peptide, the viable bacterial number decreased from 3×10^6 to 3×10^4 CFU/ml (10^3-fold lower than the control).
The fact that the peptide is active in the range below 1 μg/ml places the potency of its antibacterial effect in the same range as conventional antibiotics.
R6 with no peptide was the control and underwent exponential growth. […] This enhanced activity may result from an improvement in folding of the peptide or greater access to the bacterial target.

clinical isolate F79 = test: Lysis of tolerant clinical isolate; assay type: cell-based, pneumococcus; conditions: 10×MIC of penicillin and/or 0.5 mM peptide
Protocol: (§2) FIGS. 11A-11B show the effects of 10×MIC of penicillin and/or 0.5 mM of the peptide having the amino acid sequence of SEQ ID NO:2 on the lysis of clinical isolate F79 cells (FIG. 11A) and HK mutant VanS cells (FIG. 11B).
(§3) F79 is a natural isolate of pneumococcus with mutations in the HK and the ABC transporter genes as determined by SSCP (see Example 11).

[1] = system: pneumococcus R6 in medium lacking lysine; test: Phenotypic tolerance: lysis under starvation conditions; assay type: cell-based; conditions: for lysis response of non-growing bacteria: 10×MIC of penicillin and/or 0.5 mM peptide
Source text: When bacteria grow slowly or stop growing due to nutrient deprivation, they become tolerant to antibiotics of all classes. […] This prolongs the course of antibiotics needed to treat these infections. For instance, many weeks of therapy are required to treat endocarditis and osteomyelitis secondary to slowly growing bacteria. An in vitro example of phenotypic tolerance is shown in FIG. 10 where pneumococcus R6 has been transferred at time 0 to a medium lacking the essential amino acid lysine. Penicillin was added 5 min after the transfer. […] This same response is seen with the peptide having the amino acid sequence of SEQ ID NO:2.

[2] = system: leucine deprived R6 cells; test: Stringent response: lysis after leucine deprivation; assay type: cell-based, S. pneumoniae
Protocol: P27 and the stringent response mechanism: The stringent response is believed to prevent the death pathway. To clarify the relationship of the stringent response to P27 activity, protein synthesis of R6 was inhibited by leucine deprivation and the effect of P27 was monitored (FIG. 19). […] The minimum concentration of penicillin required to cause penicillin dependent autolysis was equal to its MIC ([…]).

[3] = system: loss of function mutants of the ABC transporter and RR/HK; test: Tolerance of loss of function mutants; assay type: cell-based, S. pneumoniae; conditions: growth inhibitory concentrations
Source text: As described in Example 6, using insertion duplication mutagenesis, loss of function mutations were obtained in each of the 3 open reading frames of the ABC transporter and each of the two parts of the RR/HK. […] These parallel phenotypes further implicate these topographically close genes in a common pathway.
Vancomycin is the only antibiotic that maintains efficacy against many strains of highly antibiotic resistant bacteria, such as staphylococci, enterococci and pneumococci. Escape from antibiotic activity of vancomycin has been detected in rare staphylococci and enterococci but not in pneumococci as yet. […] Infect. Dis. J., 12:196-200 (1993); Marton et al., J. Infect. Dis., 163:542-8 (1991); and Bradley et al., Pediatr. Infect. Dis., 14:1037-1041 (1995)]. […] If they created a phenotype which was corrected by exogenous peptide, they may participate in the biological activity of the peptide. For instance, the ABC transporter may transport the peptide and the HK may serve as an extracellular receptor for the peptide which then changes the behavior of the bacteria (i.e., killing) via a RR signal.

clinical isolate A144 [4] = test: Cell viability (CFU/ml) one hour after addition; assay type: cell-based, pneumococcus; conditions: 10×MIC of penicillin, 1×MIC of vancomycin or 0.4 mM peptide
Source text: (§4) Tolerance to penicillin occurs in bacteria that fail to trigger autolysins in response to the drug. […] This is a mechanism of resistance to these drugs and is a serious emerging medical problem. […] However, one pneumococcal strain that fails to lyse and dies slowly in response to both penicillin and vancomycin is the clinical isolate A144. This combination of traits makes A144 recalcitrant to therapy. FIG. 8 compares the activity of penicillin, vancomycin, and the peptide having the amino acid sequence of SEQ ID NO:2 against a classical sensitive strain, R6, and the tolerant strain A144. […] In contrast, strain A144 loses only 0.5 logs of viability in the same time period for all three therapies. […] Thereafter the bacteria grew more slowly than untreated controls.

HK mutant Van S = test: Lysis of HK mutant; assay type: cell-based, pneumococcus; conditions: 10×MIC of penicillin and/or 0.5 mM peptide
Protocol: as §2, §3

mutant SPSJ01 = test: Screen of library of loss of function mutants for antibiotic tolerance; assay type: cell-based, pneumococcus
Source text: To detect genes that are part of the trigger pathway of the pneumococcal autolysin a library of loss of function mutants has been created, which was screened for antibiotic tolerance [Pearce et al., Mol. Microbiol., 9:1037-1050 (1993)]. […] It is reasonable to assume that this two component system represents the start of the pneumococcal autolytic trigger pathway, functioning as a relay station reacting to cell density signals or the binding of antibiotics to penicillin binding proteins. Similar to the enterococcal histidine kinase VanSB, the pneumococcal VncS works most likely as a kinase/phosphatase (see Example 1, above).

HK mutant = test: Phenotypes of the mutants: lysis by penicillin, vancomycin, DOC; assay type: cell-based, S. pneumoniae
Protocol: (§5) Construction of mutations: Insertion duplication mutagenesis was carried out using PCR to generate gene fragments for homologous recombination proximal to the amino terminus of OrfW1, HK or RR as follows:
(§6) Phenotypes of the mutants: The mutants were assessed for various physiological functions characteristic of pneumococci. This included lysis by penicillin, vancomycin, and the detergent deoxycholate (DOC). Other capabilities tested included ability to undergo natural DNA transformation (Transform) and expression of the LytA protein as assessed by Western blot.

Orf W1 mutant = test: as above; assay type: cell-based, S. pneumoniae
Protocol: as §5, §6

RR mutant = test: as above; assay type: cell-based, S. pneumoniae
Protocol: as §5, §6

Lyt 4-4 = test: Loss of chain formation (morphology); assay type: cell-based, Streptococcus pneumoniae; conditions: Lyt 4-4, 0.5 mM peptide in the medium
Source text: Loss of chain formation is a measure of antibacterial activity independent of autolysin.
Strains of pneumococcus that are tolerant to penicillin, such as Lyt 4-4, grow in long chains as compared to the diplococcal morphology of wild type pneumococci. FIG. 6A illustrates these chains, which extend to 30-50 bacteria in length.
P27 is capable of triggering different autolytic pathways: To identify the relationship between P27 and the activation of the autolysin LytA, the bactericidal effect of the peptide on the pneumococcal mutant Lyt-4-4 (which is deficient in the major autolysin), was investigated. […] Compared to the diplococcal morphology of wild type pneumococci, pneumococci lacking an active autolysin grow in long chains.

[5] = system: autolysin deficient strain Lyt 4-4; test: Growth and killing of autolysin deficient strain; assay type: cell-based, Streptococcus pneumoniae; conditions: Lyt 4-4, 0.1 mM peptide
Protocol: The addition of the additives were made at time “0” hours. The strain of bacteria cultured was the Lyt-4-4 strain of Streptococcus pneumoniae which harbors a mutation leading to the loss of LytA activity. The peptide having the amino acid sequence of SEQ ID NO:2 was added as indicated at a concentration of 0.1 mM. Lyt-4-4 lacks active autolysin LytA and is therefore tolerant to penicillin treatment.
as §1
This antibacterial effect was also demonstrable in bacteria mutated so as to prevent autolysis by point mutation in the autolysin, as in the autolysin deficient strain Lyt 4-4. […]

RR/HK mutants = test: Antibacterial activity of the peptide in the mutants; assay type: cell-based, S. pneumoniae; conditions: peptide added exogenously
Source text: (§7) To test this hypothesis the ability of the peptide having the amino acid sequence of SEQ ID NO:2 to maintain antibacterial activity in the mutants was examined. […] Furthermore, bacteria which are tolerant by virtue of phenotypic tolerance due to slow growth rate or mutations in genes other than the RR/HK will be susceptible to the antibacterial effect of the peptide having the amino acid sequence of SEQ ID NO:2.

mutant in ORF W1 = test: as above; assay type: cell-based, S. pneumoniae; conditions: mutant in ORF W1, peptide added from the outside
Source text: as §7

clinical isolate A144 [6] = test: Growth of the clinical isolate; assay type: cell-based, pneumococcus; conditions: 0.1 mM peptide added early in the growth cycle
Source text: as §4

“MRKEFHNVLSSGQL (listed as Streptococcus pneumoniae) [Peptide 4]” was tested, and the “ability to inhibit R6 growth” value (pneumococcal strain R6) was “Exponential growth equal to untreated bacteria”.
MRKEFHNVLSSGQLLADKRPARDAN [Peptide 2] was tested, and the “ability to inhibit R6 growth” value (pneumococcal strain R6) was “greatly decreased anti-bacterial activity”.
In the case of “MEFMRKEFHNVLSSGQLLADKRPARDYN (listed as Streptococcus pneumoniae) [SEQ ID NO:12]”, the “antibacterial activity against R6” value (pneumococcal strain R6) is reported as “no antibacterial activity”.
MRKEFHNVLSAGQLLADKRPARDYN [Peptide 3] was tested, and the “ability to inhibit R6 growth” value (pneumococcal strain R6) was “greatly enhanced antibacterial effect”.
For `CC1(C)S[C@@H]2[C@H](NC(=O)Cc3ccccc3)C(=O)N2[C@H]1C(=O)O` [penicillin, benzylpenicillin], the “lysis of F79” value (clinical isolate F79) was “tolerant”, the “viability of non-growing bacteria” value ([1]; 10×MIC of penicillin) was “unaffected” and the “lysis response of non-growing bacteria” value [1] was “only a minimal response”. For the same molecule, the “time to lysis of R6” value (pneumococcal strain R6; growing R6, penicillin at 10×MIC) was “within one hour”, the “lysis of R6 under leucine deprivation” value ([2]; 10×MIC of penicillin or vancomycin, 0.2 mM P27, or combination) was “neither the addition of 10×the MIC of penicillin or vancomycin nor the addition of 0.2 mM P27 resulted in lysis” and the “minimum concentration of penicillin required to cause penicillin dependent autolysis” value ([2]; leucine deprived R6, in combination with P27) was 0.1 mg/mL. For the same molecule, the “tolerance (lysis and death)” value [3] was “failed to lyse and die”, the loss of viability (clinical isolate A144 [4]) was 0.5 logs and the “lysis of Van S” value (HK mutant Van S) was “tolerance”. For the same molecule, the “death in the presence of antibiotic” value (mutant SPSJ01) was “failed to die”, the “Lysis by” value (HK mutant) was “tolerant” and the “Lysis by” value (Orf W1 mutant) was “tolerant”. For the same molecule, the “Lysis by” value (RR mutant) was “sensitive”.
In the case of “MRKEFHNVLSSGQLLADKRPARDYN (listed as Streptococcus pneumoniae) [Peptide 1]”, the “lysis response of non-growing bacteria” value [1] is reported as “same response”, the chain formation (Lyt 4-4; listed as SEQ ID NO.2) is reported as “dissolution of the chains” and the chain formation (Lyt 4-4; listed as SEQ ID NO:2) is reported as “reversion of the chains to diplococci”. For the same molecule, the “Bacterial growth as measured by optical density” value (pneumococcal strain R6; R6, 0.1 mM peptide, followed for 11 hours) was “completely inhibited growth”, the “viable number, fold lower than the control” value (pneumococcal strain R6; R6, 0.1 mM peptide, four hours) was 10^3 fold and the viable bacterial number (pneumococcal strain R6; R6, 0.1 mM peptide, four hours after addition, start 3×10^6) was 3×10^4 CFU/ml. For the same molecule, the lysis (pneumococcal strain R6; R6, 0.1 mM peptide, listed as SEQ ID NO:2) was “without substantial cell lysis; also recorded: No lysis was detected”, the “minimum effective concentration (MEC)” value (pneumococcal strain R6; R6, converted with molecular weight 2940) was 0.15 to 0.3 µg/mL and the minimum effective concentration (pneumococcal strain R6; R6, optical density over 4 hours) was 50 to 100 nM. The “dose dependence of antibacterial activity” value (pneumococcal strain R6; R6, various amounts of peptide, 4 hours) was “dose dependent antibacterial activity”, the “ability to inhibit R6 growth” value (pneumococcal strain R6) was “significant delay in the onset of bacterial growth” and the loss of viability (clinical isolate A144 [4]) was 0.5 logs. The bactericidal activity [5] was “demonstrable”, the growth inhibition (RR/HK mutants) was “did not function to inhibit the growth” and the growth inhibition (mutant in ORF W1) was “not able to inhibit growth”. The “lysis of Van S” value (HK mutant Van S) was “not responsive” and the “growth of strain A144” value (clinical isolate A144 [6]) was “significantly inhibits the growth of strain A144 for 4 hours”.
“LADKRPARDYN (listed as Streptococcus pneumoniae) [Peptide 5]” was tested, and the “ability to inhibit R6 growth” value (pneumococcal strain R6) was “Exponential growth equal to untreated bacteria”.
deoxycholate [DOC] was tested, and the “Lysis by” value (HK mutant) was “yes”, the “Lysis by” value (Orf W1 mutant) was “no” and the “Lysis by” value (RR mutant) was “yes”.

Source: patent publication US6630583B1, “Antibiotics and methods of using the same” (priority 1998, dated 2003)
